One experiment deals with T1, WT STING (Homo sapiens, UniProt Q86WV6, H232R).
T1 construct: encoded truncated human WT STING or AQ STING (amino acid residues 140-343) with N-terminal 8×His and SUMO tag; 8xHis-SUMO (N, cleaved yes); made in house; host or cells: E. coli Rosetta-gami B (DE3)
As to the kind of experiment: Differential Scanning Fluorimetry (DSF) with WT STING. Particulars: thermal shift vs STING apoprotein; 150 μM CDN; 0.1 mg/ml protein; SYPRO Orange. Format: binding. Here is the method:
(§1) WT STING and AQ STING Proteins
(§2) Purified PCR products were cleaved with restriction enzymes BamHI (cat. #R0136S, NEB, Ipswich, USA) and NotI (cat. #R0189S, NEB, Ipswich, USA) and cloned into the pSUMO vector linearized with the identical enzymes.
(§3) DNase I (cat. #D5025, Sigma Aldrich, Czech Republic) and RNase A (cat. #R6513, Sigma Aldrich, Czech Republic) were added (final concentration 50 μg/ml) together with MgCl2 (final concentration 5 mmol·l^−1) to the homogenate and bacteria were lysed using French Press G-M™ High-Pressure Cell Press Homogenizer (1500 psi, 3 cycles). […] The resin was poured into a chromatography column, washed with 50 ml buffer A (50 mmol·l^−1 TrisCl (pH 8.0), 800 mmol·l^−1 NaCl, 3 mmol·l^−1 3-mercaptol; 10% glycerol; 20 mmol·l^−1 imidazole) and 8-His-SUMO tagged STING proteins were eluted with 15 ml buffer A containing 300 mmol·l^−1 imidazole. […] Proteins were concentrated with Amicon® Ultra-15 10 K device (cat. #UFC901008, Merck Millipore, Billerica, USA) and flash frozen in liquid N2.
(§4) Differential Scanning Fluorimetry (DSF) with WT STING and AQ STING
(§5) 20 μL solutions of the reaction mixtures were pipetted in triplicates into 96 well optical reaction plates and thermal denaturation of samples were performed on real time PCR cycler (LightCycler R 480 Instrument II—Roche, Basel, Switzerland). The first derivative of the thermal denaturation curves was performed to calculate denaturing temperatures of STING-CDN complexes and STING apoproteins. The thermal shift for each CDN was calculated by subtracting the average denaturing temperature of STING apoprotein from the average denaturing temperature of STING CDN complex.
For orientation: DSF heats the sample and reads unfolding from a dye or from intrinsic fluorescence.

Another experiment addresses T2, AQ STING (G230A-R293Q) (Homo sapiens, UniProt Q86WV6, G230A/H232R/R293Q).
T2 construct: encoded truncated human WT STING or AQ STING (amino acid residues 140-343) with N-terminal 8×His and SUMO tag; 8xHis-SUMO (N, cleaved yes); made in house; host or cells: E. coli Rosetta-gami B (DE3)
Nature of the experiment: Differential Scanning Fluorimetry (DSF) with AQ STING. Particulars: thermal shift vs STING apoprotein; 150 μM CDN; 0.1 mg/ml protein; SYPRO Orange. Format: binding. The protocol: as §1, §2, §3, §4, §5

Experiment [1] concerns the target T3, human wild type STING (WT STING) (Homo sapiens, UniProt Q86WV6, H232R).
T3 construct: host or cells: 293T (ATCC CRL-3216), stably transfected, with a 4xISRE firefly luciferase reporter
As to the kind of experiment: Digitonin assay using 293T wtSTING-FL reporter cells. The format is cell-based. Particulars: 293T wtSTING-FL cells; ISRE firefly luciferase reporter; 30 min in Digitonin buffer, then 5 hours; 8-point dose-response curve. An excerpt:
ISRE Reporter Plasmid (pGL64.27-4×ISRE)
Two complementary oligonucleotides of the sequence […] […] […] […] […] The oligonucleotides were mixed in equal molar amounts, hybridized, and cleaved by restriction endonucleases HindIII (cat. #. R0104S, NEB, Ipswich, USA) and BglII (cat. #R0144S, NEB, Ipswich, USA). Ultimately, they were ligated into plasmid pGL4.27 (cat. #E6651, Promega, Madison, USA) linearized with the same enzymes. As result the sequence with four ISRE sites was placed upstream of the minimum promoter of firefly luciferase reporter gene.
After 5 minutes incubation at room temperature (RT), 250 μL of the mixture was added dropwise to the cells in one well. Cells were incubated 36 hours at 37° C. with 5% CO2, and then detached with 0.05% Trypsin and 0.22 g/L EDTA (both cat. #L0941, Biowest, Riverside, USA).
Transfected cells were seeded onto poly-D-lysine coated six well plates at density 50,000 cells per 1 cm^2 in DMEM medium with high glucose containing 10% heat inactivated FBS, 30 μg/mL blasticidin (cat. #ant-bl-05, InvivoGen, San Diego, USA), 0.06 mg/ml Penicillin G and 0.1 mg/ml Streptomycin Sulfate (both cat. #. L0018, Biowest, Riverside, USA). The medium was replenished every 3-4 days until visible colonies of cells resistant to blasticidin were formed.
Blasticidin resistant cells stably expressing WT STING were further transfected with pGL64.27-4×ISRE plasmid following the same procedure as described above. […] Homogeneous culture of stably double transfected cells was prepared by limiting dilution of cells in 96 well plates and wells with cells were selected that originated from a single cell.
The medium was removed next day and three fold serial dilutions of compounds in Digitonin buffer containing 50 mmol·l^−1 HEPES (cat. #H3375, Sigma Aldrich, Czech Republic) pH 7.0, 100 mmol·l^−1 KCl, 3 mmol·l^−1 MgCl2, 0.1 mmol·l^−1 DTT (cat. #D0632, Sigma Aldrich, Czech Republic), 85 mmol·l^−1 Sucrose (cat. #S7903, Sigma Aldrich, Czech Republic), 0.2% BSA (cat. #A2153, Sigma Aldrich, Czech Republic), 1 mmol·l^−1 ATP (cat. #A1852, Sigma Aldrich, Czech Republic), 0.1 mmol·l^−1 GTP (cat. #G8877, Sigma Aldrich, Czech Republic), and 10 μg/mL Digitonin A (cat. #D141, Sigma Aldrich, Czech Republic) were added to the cells. The buffer was removed after 30 minutes incubation at 37° C. with 5% CO2, the cells were washed once with 100 μl of cultivation medium, and 100 μl of medium was added to each well. The plates with cells were incubated for 5 hours at 37° C. with 5% CO2, 50 μl of the medium was removed and 30 μl of ONE-Glo™ Luciferase Assay System reagent (cat. #E6120, Promega, Madison, USA) was added to each well. Luminescence was read on Synergy H1 (Biotek, Winooski, USA).

Here are results for nine molecules from patent US10966999B2, “3′3′ cyclic dinucleotides with phosphonate bond activating the sting adaptor protein” (INSTITUTE OF ORGANIC CHEMISTRY AND BIOCHEMISTRY ASCR, V.V.I., priority 2017, dated 2021).

By EC50 is commonly meant the concentration needed to bring the measured effect to its halfway point. One may read the ΔTm as the shift of the melting midpoint relative to a reference.

T3 sequence (Q86WV6 whole entry H232R): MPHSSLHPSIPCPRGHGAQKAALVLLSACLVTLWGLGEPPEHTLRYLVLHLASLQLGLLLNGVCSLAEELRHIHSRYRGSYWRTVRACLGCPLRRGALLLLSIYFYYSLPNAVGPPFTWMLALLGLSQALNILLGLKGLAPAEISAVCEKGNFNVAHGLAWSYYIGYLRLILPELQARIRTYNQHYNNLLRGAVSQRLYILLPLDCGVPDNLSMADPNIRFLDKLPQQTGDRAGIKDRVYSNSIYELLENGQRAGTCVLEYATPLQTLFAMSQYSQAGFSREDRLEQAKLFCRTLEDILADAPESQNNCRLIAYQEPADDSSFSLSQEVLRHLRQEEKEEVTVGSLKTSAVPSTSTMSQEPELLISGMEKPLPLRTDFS
T2 sequence (Q86WV6 140-343 G230A/H232R/R293Q): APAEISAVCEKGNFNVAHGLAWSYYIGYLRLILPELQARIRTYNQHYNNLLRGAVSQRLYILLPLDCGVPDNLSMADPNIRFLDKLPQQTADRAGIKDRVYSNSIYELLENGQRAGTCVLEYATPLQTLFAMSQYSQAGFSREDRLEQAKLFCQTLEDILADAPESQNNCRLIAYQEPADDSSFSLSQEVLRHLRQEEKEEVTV
T1 sequence (Q86WV6 140-343 H232R): as the sequence (Q86WV6 140-343 G230A/H232R/R293Q) above, with A91G, Q154R counted along it

In the case of `Nc1nc2c(ncn2[C@@H]2O[C@@H]3COP(=O)(O)O[C@H]4[C@@H](O)[C@H](n5cnc6c(=O)[nH]c(N)nc65)O[C@@H]4COP(=O)(O)O[C@H]3[C@H]2O)c(=O)[nH]1` [3′3′c-di-GMP, 3′3′-c-di-GMP, reference compound], the “DSF ΔTm WT STING” value on WT STING came to 2.6 °C. For the same molecule, on AQ STING (G230A-R293Q), the “DSF ΔTm AQ STING” value turned out to be 7.7 °C. Besides, in experiment [1], the EC50 stood at 5800 nM.

Consider `Nc1nc2c(ncn2[C@@H]2O[C@@H]3COP(=O)(O)OC4C(O)[C@H](n5cnc6c(N)ncnc65)O[C@@H]4OCP(=O)(O)OC3C2O)c(=O)[nH]1` (stereo partly drawn) [Compound 44], for which the values for the ΔTm at 150 µM at WT STING and on AQ STING (G230A-R293Q) were 4.5 °C and 11.2 °C, respectively. Further, the EC50 in experiment [1] is 90 nM.

With `CNc1ncnc2c1ncn2[C@@H]1O[C@@H]2COP(=O)(O)OC3C(O)[C@H](n4cnc5c(=O)[nH]c(N)nc54)O[C@@H]3OCP(=O)(O)OC2C1O` (stereo partly drawn) [Compound 39], the shift in melting temperature (ΔTm) at 150 µM on WT STING was 2.9 °C; at AQ STING (G230A-R293Q), 8 °C. Also, the concentration for a half-maximal effect (EC50) in experiment [1] is 120 nM.

Take `Nc1ncnc2c1ncn2[C@@H]1O[C@@H]2OCP(=O)(O)OC3C(O)[C@H](n4cnc5c(N)ncnc54)O[C@@H]3COP(=O)(O)OC2C1O` (stereo partly drawn) [Compound 51]: the shift in melting temperature (ΔTm) at 150 µM was found to be 4 °C on WT STING and 10.6 °C at AQ STING (G230A-R293Q). The EC50 in experiment [1] stood at 170 nM.

In the case of `Nc1ncnc2c1ncn2[C@@H]1O[C@@H]2OCP(=O)(O)OC3C(O)[C@H](n4cnc5c(N)ncnc54)O[C@@H]3COP(=O)(S)OC2C1O` (stereo partly drawn) [Compound 49], the thermal shift (ΔTm) at 150 µM stood at 0.5 °C at WT STING and 4.2 °C on AQ STING (G230A-R293Q). In addition, in experiment [1], the concentration giving a half-maximal response (EC50) was determined as 1500 nM.

With `Nc1ncnc2c1ncn2[C@@H]1O[C@@H]2COP(=O)(O)O[C@H]3[C@@H](O)[C@H](n4cnc5c(N)ncnc54)O[C@@H]3COP(=O)(O)O[C@H]2[C@H]1O` [3′3′c-di-AMP, 3′3′-c-di-AMP, reference compound], at WT STING, the “DSF ΔTm WT STING” value came out at 2.6 °C. The “DSF ΔTm AQ STING” value at AQ STING (G230A-R293Q) came out at 9.3 °C. The concentration for a half-maximal effect (EC50) in experiment [1] came out at 300 nM.

In the case of `Nc1ncnc2c1ncn2[C@@H]1O[C@@H]2OCP(=O)(O)OC3C(O)[C@H](n4cnc5c(N)nc(F)nc54)O[C@@H]3COP(=O)(O)OC2C1O` (stereo partly drawn) [Compound 52], the shift in melting temperature (ΔTm) at 150 µM is 1.1 °C on WT STING and 6.3 °C on AQ STING (G230A-R293Q). In experiment [1], the EC50 was 2200 nM.

Take `COc1nc(N)nc2c1ncn2[C@@H]1O[C@@H]2COP(=O)(O)OC3C(O)[C@H](n4cnc5c(N)ncnc54)O[C@@H]3OCP(=O)(O)OC2C1O` (stereo partly drawn) [Compound 41]: the shift in melting temperature (ΔTm) at 150 µM at WT STING stood at 0.1 °C; at AQ STING (G230A-R293Q) it was 1.6 °C. For the same molecule, the 50% effective concentration (EC50) in experiment [1] is 17600 nM.

As for `Nc1nc2c(ncn2[C@@H]2O[C@@H]3OCP(=O)(O)OC4C(O)[C@H](n5cnc6c(N)ncnc65)O[C@@H]4OCP(=O)(O)OC3C2O)c(=O)[nH]1` (stereo partly drawn) [Compound 38], the thermal shift (ΔTm) at 150 µM stood at 1.9 °C on WT STING and 9.5 °C on AQ STING (G230A-R293Q). For the same molecule, the concentration giving a half-maximal response (EC50) in experiment [1] stood at 200 nM.
